These results are taken from PubChem BioAssay AID485276 (Southern Research Specialized Biocontainment Screening …, 2010).

This assay deals with BSC cells, SV40 CPE inhibition. The assay is described as follows: antiviral efficacy against SV40, host toxicity – BSC cells, set 3, confirmation (AID 485276). The conditions noted are these: measured here: BSC cell cytotoxicity.
In turn, `CC(C)(c1ccc(O)cc1)c1ccc(O)cc1` came in with a TC50 of 17 µM.

`Oc1c(Cl)cc(Cl)cc1Sc1cc(Cl)cc(Cl)c1O` came in with a TC50 of 21.2 µM. To `CC(C)c1cc(C(C)(C)c2ccc(O)c(C(C)C)c2)ccc1O` belongs 24 µM; to `Oc1ccc(Cl)cc1Cc1cc(Cl)ccc1O`, 18 µM. In the case of `Oc1ccc(C2(c3ccc(O)cc3)CC2)cc1` it was 196 µM; in that of `Oc1ccc(Oc2ccc(O)cc2)cc1`, 9.92 µM.

The compound `CC(C)(c1ccc(O)cc1)c1ccc(Cl)cc1` yielded a TC50 of 71.2 µM.
